Source: patent US20100267561A1, “HERBICIDAL PYRIDAZINONE DERIVATIVES” (priority 2007, published 2010)

What was measured:
Assay in all cases: Test B pre-/postemergence plant response
Format in all cases: in vivo
[1] = test system: green foxtail (Setaria viridis)
In short: (§1)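 Seeds were sown and sprayed preemergence, while plants at 2 to 18 cm (1- to 4-leaf stage) got postemergence sprays. Compounds were formulated in a non-phytotoxic solvent mixture with surfactant. After 13 to 15 days in a greenhouse, injury was rated visually against untreated controls, 0 (no effect) to 100 (complete control).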

[2] = test system: downy bromegrass (Bromus tectorum)
In short: as §1

[3] = test system: blackgrass (Alopecurus myosuroides)
In short: as §1

[4] = test system: giant foxtail (Setaria faberii)
In short: as §1

[5] = test system: pigweed (Amaranthus retroflexus)
In short: as §1

[6] = test system: catchweed bedstraw (Galium aparine); conditions: Preemergence
In short: as §1

[7] = test system: goosegrass (Eleusine indica)
In short: as §1

[8] = test system: morningglory (Ipomoea coccinea)
In short: as §1

wild oat (Avena fatua) = test system: wild oat (Avena fatua)
In short: as §1

[9] = test system: common ragweed (Ambrosia elation)
In short: as §1

[10] = test system: surinam grass (Brachiaria decumbens)
In short: as §1

[11] = test system: lambsquarters (Chenopodium album); conditions: Postemergence
In short: as §1

[12] = test system: woolly cupgrass (Eriochloa villosa)
In short: as §1

corn (Zea mays) = test system: corn (Zea mays)
In short: as §1

[13] = Postemergence, 31 g ai/ha, scale 0 to 100, 0 no effect, 100 complete control
[14] = Postemergence, 62 g ai/ha, scale 0 to 100
[15] = Postemergence, 125 g ai/ha, scale 0 to 100
[16] = Postemergence, 250 g ai/ha, scale 0 to 100
[17] = Preemergence, 31 g ai/ha, 0 to 100 scale, 0 no effect, 100 complete control
[18] = Preemergence, 62 g ai/ha, scale 0 to 100
[19] = Preemergence, 125 g ai/ha, scale 0 to 100
[20] = Preemergence, 250 g ai/ha, scale 0 to 100

CCc1cc(-c2ccc(C(F)(F)F)cc2)nn1-c1c(O)c(C)nn(C)c1=O [Compound 16]
25: Plant response rating, Cupgrass, Woolly [12, 18]
100: Plant response rating, Foxtail, Green [1, 15] | Plant response rating, Foxtail, Green [1, 16] | Plant response rating, Foxtail, Green [1, 17] | Plant response rating, Foxtail, Green [1, 18] | Plant response rating, Foxtail, Green [1, 19] | Plant response rating, Foxtail, Green [1, 20] | Plant response rating, Bromegrass, Downy [2, 16] | Plant response rating, Bromegrass, Downy [2, 18] | Plant response rating, Bromegrass, Downy [2, 19] | Plant response rating, Bromegrass, Downy ([2]; Preemergence, 250 g ai/ha, scale 0 to 100 (0 no effect, 100 complete control)) | Blackgrass plant response rating ([3]; 250 g ai/ha, preemergence, 0-100 scale) | Plant response rating, Blackgrass [3, 14] | Plant response rating, Blackgrass [3, 15] | Plant response rating, Blackgrass [3, 16] | Plant response rating, Blackgrass [3, 17] | Plant response rating, Blackgrass [3, 18] | Plant response rating, Blackgrass [3, 19] | Plant response rating, Foxtail, Giant [4, 15] | Plant response rating, Foxtail, Giant [4, 16] | Plant response rating, Oat, Wild (wild oat (Avena fatua); [14]) | Plant response rating, Oat, Wild (wild oat (Avena fatua); [15]) | Plant response rating, Oat, Wild (wild oat (Avena fatua); [16]) | Plant response rating, Oat, Wild (wild oat (Avena fatua); [20]) | Plant response rating, Surinam Grass [10, 14] | Plant response rating, Surinam Grass [10, 15] | Plant response rating, Surinam Grass [10, 16] | Plant response rating, Surinam Grass [10, 20] | Plant response rating, Cupgrass, Woolly [12, 15] | Plant response rating, Cupgrass, Woolly [12, 16] | Plant response rating, Corn (corn (Zea mays); [15]) | Plant response rating, Corn (corn (Zea mays); [16]) | Plant response rating, Corn (corn (Zea mays); [18]) | Plant response rating, Corn (corn (Zea mays); [19]) | Plant response rating, Corn (corn (Zea mays); [20])
60: Plant response rating, Bromegrass, Downy [2, 13] | Plant response rating, Goosegrass [7, 13] | Plant response rating, Goosegrass [7, 20]
50: Plant response rating, Goosegrass [7, 19]
0: Plant response rating, Foxtail, Giant [4, 17] | Plant response rating, Foxtail, Giant [4, 18] | Plant response rating, Pigweed [5, 13] | Plant response rating, Pigweed [5, 14] | Plant response rating, Pigweed [5, 15] | Plant response rating, Pigweed [5, 16] | Plant response rating, Pigweed [5, 18] | Plant response rating, Pigweed [5, 19] | Plant response rating, Pigweed [5, 20] | Plant response rating, Galium ([6]; 31 g ai/ha, 0 to 100 scale, 0 no effect, 100 complete control) | Plant response rating, Galium ([6]; 62 g ai/ha, scale 0 to 100) | Plant response rating, Galium ([6]; 125 g ai/ha, scale 0 to 100) | Plant response rating, Galium ([6]; 250 g ai/ha, scale 0 to 100) | Plant response rating, Goosegrass [7, 17] | Plant response rating, Goosegrass [7, 18] | Plant response rating, Morningglory [8, 13] | Plant response rating, Morningglory [8, 14] | Plant response rating, Morningglory [8, 15] | Plant response rating, Morningglory [8, 16] | Plant response rating, Morningglory [8, 17] | Plant response rating, Morningglory [8, 18] | Plant response rating, Morningglory [8, 19] | Plant response rating, Morningglory [8, 20] | Plant response rating, Ragweed [9, 13] | Plant response rating, Ragweed [9, 14] | Plant response rating, Ragweed [9, 15] | Plant response rating, Ragweed [9, 16] | Plant response rating, Ragweed [9, 17] | Plant response rating, Ragweed [9, 18] | Plant response rating, Ragweed [9, 19] | Plant response rating, Ragweed [9, 20] | Plant response rating, Lambsquarters ([11]; 31 g ai/ha, scale 0 to 100, 0 no effect, 100 complete control) | Plant response rating, Lambsquarters ([11]; 62 g ai/ha, scale 0 to 100) | Plant response rating, Lambsquarters ([11]; 125 g ai/ha, scale 0 to 100) | Plant response rating, Lambsquarters ([11]; 250 g ai/ha, scale 0 to 100) | Plant response rating, Cupgrass, Woolly [12, 17] | Plant response rating, Corn (corn (Zea mays); [17])
80: Plant response rating, Goosegrass [7, 16] | Plant response rating, Cupgrass, Woolly [12, 13]
55: Plant response rating, Surinam Grass [10, 18]
98: Plant response rating, Foxtail, Green [1, 14] | Plant response rating, Blackgrass [3, 13] | Plant response rating, Foxtail, Giant [4, 14] | Plant response rating, Oat, Wild (wild oat (Avena fatua); [19]) | Plant response rating, Corn (corn (Zea mays); [13]) | Plant response rating, Corn (corn (Zea mays); [14])
75: Plant response rating, Goosegrass [7, 15]
70: Plant response rating, Bromegrass, Downy [2, 14] | Plant response rating, Foxtail, Giant [4, 20] | Plant response rating, Cupgrass, Woolly [12, 19]
95: Plant response rating, Foxtail, Green [1, 13] | Plant response rating, Oat, Wild (wild oat (Avena fatua); [13]) | Plant response rating, Oat, Wild (wild oat (Avena fatua); [18]) | Plant response rating, Surinam Grass [10, 19] | Plant response rating, Cupgrass, Woolly [12, 14] | Plant response rating, Cupgrass, Woolly [12, 20]
40: Plant response rating, Foxtail, Giant [4, 19]
85: Plant response rating, Foxtail, Giant [4, 13]
90: Plant response rating, Bromegrass, Downy [2, 15] | Plant response rating, Bromegrass, Downy [2, 17] | Plant response rating, Oat, Wild (wild oat (Avena fatua); [17]) | Plant response rating, Surinam Grass [10, 13]
45: Plant response rating, Surinam Grass [10, 17]
65: Plant response rating, Goosegrass [7, 14]
